In ChEMBL document CHEMBL1140800, “Identification of 2-amino-5-(thioaryl)thiazoles as inhibitors of nerve growth factor receptor TrkA” (Bioorg Med Chem Lett, 2008):
Blank lines part the entries; values can stand above or below the molecule they belong to.

How the values were obtained:
[1] = molecular target: High affinity nerve growth factor receptor (Homo sapiens, UniProt P04629); experiment: Inhibition of TrkA
SH-SY5Y = experiment: Antiproliferative activity against human SH-SY5Y cells after 3 days; assay type: functional, cell-based; settings: 72 h
[2] = Antiproliferative activity against rat RKE cells expressing CD8-TrkA after 3 days; assay type: functional, cell-based; settings: 72 h
[3] = Antiproliferative activity against TrkA deficient rat RK3E cells after 3 days; assay type: functional, cell-based; settings: 72 h
[4] = molecular target: Hepatocyte growth factor receptor (Homo sapiens, UniProt P08581); experiment: Inhibition of Met
[5] = molecular target: Cyclin-dependent kinase 2 (Homo sapiens, UniProt P24941); experiment: Inhibition of CDK2
[6] = molecular target: Insulin-like growth factor 1 receptor (Homo sapiens, UniProt P08069); experiment: Inhibition of IGF1R
[7] = Inhibition of VEGFR at 2 uM
[8] = Inhibition of VEGFR

Sequence of High affinity nerve growth factor receptor (P04629 whole entry): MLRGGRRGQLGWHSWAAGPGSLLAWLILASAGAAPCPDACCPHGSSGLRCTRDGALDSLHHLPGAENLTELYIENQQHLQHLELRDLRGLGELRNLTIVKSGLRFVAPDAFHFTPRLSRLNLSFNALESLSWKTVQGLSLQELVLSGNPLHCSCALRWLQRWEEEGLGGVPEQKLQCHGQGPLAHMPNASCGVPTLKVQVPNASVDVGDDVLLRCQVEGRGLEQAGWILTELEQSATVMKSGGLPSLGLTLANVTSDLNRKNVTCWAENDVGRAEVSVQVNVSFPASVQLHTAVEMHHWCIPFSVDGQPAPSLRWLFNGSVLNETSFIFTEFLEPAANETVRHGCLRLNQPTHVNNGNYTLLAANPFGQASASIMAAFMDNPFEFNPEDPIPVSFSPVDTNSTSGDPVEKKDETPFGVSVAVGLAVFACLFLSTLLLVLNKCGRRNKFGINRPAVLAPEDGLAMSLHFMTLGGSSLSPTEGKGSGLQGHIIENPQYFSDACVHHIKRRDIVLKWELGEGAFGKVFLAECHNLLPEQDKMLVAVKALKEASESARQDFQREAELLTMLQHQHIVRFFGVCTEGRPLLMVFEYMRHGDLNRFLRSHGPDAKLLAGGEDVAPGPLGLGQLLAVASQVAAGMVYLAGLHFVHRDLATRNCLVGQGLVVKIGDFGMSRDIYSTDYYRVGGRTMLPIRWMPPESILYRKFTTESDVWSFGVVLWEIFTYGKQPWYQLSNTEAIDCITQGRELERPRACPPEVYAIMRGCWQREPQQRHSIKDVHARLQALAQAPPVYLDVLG
Sequence of Hepatocyte growth factor receptor (P08581 whole entry): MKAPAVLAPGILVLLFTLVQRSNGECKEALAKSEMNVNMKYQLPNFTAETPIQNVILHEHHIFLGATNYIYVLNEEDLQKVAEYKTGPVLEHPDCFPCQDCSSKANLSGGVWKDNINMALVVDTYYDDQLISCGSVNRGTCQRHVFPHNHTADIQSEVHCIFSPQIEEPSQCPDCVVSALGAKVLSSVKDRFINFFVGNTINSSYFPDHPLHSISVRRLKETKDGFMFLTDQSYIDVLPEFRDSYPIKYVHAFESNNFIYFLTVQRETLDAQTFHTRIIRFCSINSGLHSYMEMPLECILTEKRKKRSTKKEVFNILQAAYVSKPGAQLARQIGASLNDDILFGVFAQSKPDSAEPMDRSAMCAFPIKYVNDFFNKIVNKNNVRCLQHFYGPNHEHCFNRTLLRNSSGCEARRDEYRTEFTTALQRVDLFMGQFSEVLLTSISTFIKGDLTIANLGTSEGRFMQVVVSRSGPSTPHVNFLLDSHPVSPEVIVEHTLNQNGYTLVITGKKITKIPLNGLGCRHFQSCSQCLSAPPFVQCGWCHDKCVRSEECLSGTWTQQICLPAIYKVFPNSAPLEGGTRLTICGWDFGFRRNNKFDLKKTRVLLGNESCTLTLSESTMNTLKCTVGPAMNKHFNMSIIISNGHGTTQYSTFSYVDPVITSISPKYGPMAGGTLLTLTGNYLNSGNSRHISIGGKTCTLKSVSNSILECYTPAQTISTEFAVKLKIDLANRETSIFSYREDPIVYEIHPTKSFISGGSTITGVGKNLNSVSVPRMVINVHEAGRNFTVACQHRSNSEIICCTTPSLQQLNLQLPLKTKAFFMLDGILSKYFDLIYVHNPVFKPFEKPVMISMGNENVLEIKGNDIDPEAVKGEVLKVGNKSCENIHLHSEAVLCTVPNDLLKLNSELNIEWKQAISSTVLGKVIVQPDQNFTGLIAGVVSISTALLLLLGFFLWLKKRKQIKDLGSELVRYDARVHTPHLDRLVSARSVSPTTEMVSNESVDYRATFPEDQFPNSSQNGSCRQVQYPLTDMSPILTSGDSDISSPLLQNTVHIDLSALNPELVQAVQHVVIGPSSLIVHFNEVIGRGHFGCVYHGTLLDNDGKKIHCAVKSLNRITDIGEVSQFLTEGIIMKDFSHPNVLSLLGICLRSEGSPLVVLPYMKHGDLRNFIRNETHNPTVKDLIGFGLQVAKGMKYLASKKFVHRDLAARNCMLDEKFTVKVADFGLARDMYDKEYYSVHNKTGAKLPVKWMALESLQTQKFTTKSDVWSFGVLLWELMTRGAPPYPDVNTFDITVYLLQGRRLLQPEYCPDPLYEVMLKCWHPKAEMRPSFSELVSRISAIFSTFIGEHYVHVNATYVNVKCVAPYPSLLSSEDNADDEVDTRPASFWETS
Sequence of Insulin-like growth factor 1 receptor (P08069 31-736 limits assumed): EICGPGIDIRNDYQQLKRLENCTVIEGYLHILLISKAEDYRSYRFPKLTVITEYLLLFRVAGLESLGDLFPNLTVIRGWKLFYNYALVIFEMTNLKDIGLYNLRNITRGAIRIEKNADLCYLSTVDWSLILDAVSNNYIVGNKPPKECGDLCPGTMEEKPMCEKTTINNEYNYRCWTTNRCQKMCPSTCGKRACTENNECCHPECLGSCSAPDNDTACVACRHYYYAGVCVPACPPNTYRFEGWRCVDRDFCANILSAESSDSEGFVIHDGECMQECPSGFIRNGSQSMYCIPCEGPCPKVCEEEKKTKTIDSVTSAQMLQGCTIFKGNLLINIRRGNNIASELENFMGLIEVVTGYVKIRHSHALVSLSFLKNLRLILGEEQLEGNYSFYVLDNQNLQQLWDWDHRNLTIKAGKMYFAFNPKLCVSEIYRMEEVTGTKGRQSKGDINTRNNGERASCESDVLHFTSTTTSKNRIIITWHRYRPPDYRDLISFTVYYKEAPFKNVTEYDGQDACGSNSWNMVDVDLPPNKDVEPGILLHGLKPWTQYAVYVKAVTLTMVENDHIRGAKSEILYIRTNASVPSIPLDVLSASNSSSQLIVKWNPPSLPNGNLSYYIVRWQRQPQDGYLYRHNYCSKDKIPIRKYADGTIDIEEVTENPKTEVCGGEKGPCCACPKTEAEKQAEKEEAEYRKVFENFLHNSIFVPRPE
Sequence of Insulin-like growth factor 1 receptor (P08069 741-1367 limits assumed): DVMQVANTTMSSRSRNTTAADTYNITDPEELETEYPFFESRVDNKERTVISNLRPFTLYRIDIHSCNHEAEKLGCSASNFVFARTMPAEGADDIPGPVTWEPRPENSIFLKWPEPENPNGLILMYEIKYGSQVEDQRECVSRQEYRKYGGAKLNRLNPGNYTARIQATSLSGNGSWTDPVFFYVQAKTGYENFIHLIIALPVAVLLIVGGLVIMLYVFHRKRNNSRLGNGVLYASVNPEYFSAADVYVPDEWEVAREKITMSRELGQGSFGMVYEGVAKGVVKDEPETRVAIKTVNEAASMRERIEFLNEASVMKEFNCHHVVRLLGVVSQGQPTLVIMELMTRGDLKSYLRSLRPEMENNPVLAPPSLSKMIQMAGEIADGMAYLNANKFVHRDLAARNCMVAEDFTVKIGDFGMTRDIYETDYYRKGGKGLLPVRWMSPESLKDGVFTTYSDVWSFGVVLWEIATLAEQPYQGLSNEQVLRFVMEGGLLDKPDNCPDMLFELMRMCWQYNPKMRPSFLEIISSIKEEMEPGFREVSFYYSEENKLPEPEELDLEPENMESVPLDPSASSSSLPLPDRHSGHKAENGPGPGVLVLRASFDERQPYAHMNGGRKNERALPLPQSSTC

IC50 [1]: 65 nM
Structure (SMILES): Cc1ccc(Sc2cnc(Nc3ccccn3)s2)cc1C(=O)NCCC#N

IC50 (SH-SY5Y): 750 nM
IC50 [1]: 2 nM
Structure (SMILES): Cc1ccc(Sc2cnc(Nc3cccc(Br)n3)s2)cc1C(=O)N(C)CC#N
IC50 [2]: 390 nM
IC50 [3]: 3000 nM

IC50 [1]: 44 nM
Structure (SMILES): Cc1ccc(Sc2cnc(Nc3ccccn3)s2)cc1C(=O)NCC#N

IC50 [1]: > 5000 nM
Structure (SMILES): CC(=O)N1CCN(C(=O)c2cc(Sc3cnc(N)s3)ccc2C)CC1

IC50 [1]: 910 nM
Structure (SMILES): Cc1ccc(Sc2cnc(Nc3ccccn3)s2)cc1C(=O)N1CCN(S(C)(=O)=O)CC1

IC50 [1]: 1100 nM
Structure (SMILES): CC(=O)N1CCCN(C(=O)c2cc(Sc3cnc(Nc4ccccn4)s3)ccc2C)CC1

IC50 [1]: 80 nM
Structure (SMILES): CC(=O)N1CCN(C(=O)c2cc(Sc3cnc(Nc4ccccn4)s3)ccc2C)CC1

IC50 (SH-SY5Y): 1780 nM
IC50 [4]: 170 nM
IC50 [5]: 230 nM
IC50 [1]: 1 nM
IC50 [6]: 700 nM
Structure (SMILES): Cc1ccc(Sc2cnc(Nc3cccc(Br)n3)s2)cc1C(=O)N1CCN(C(=O)[C@@H](C)N)CC1
IC50 [2]: 230 nM
IC50 [3]: 3610 nM

IC50 (SH-SY5Y): 4260 nM
IC50 [4]: > 1000 nM
IC50 [5]: 520 nM
IC50 [1]: 1 nM
IC50 [6]: 360 nM
Structure (SMILES): Cc1ccc(Sc2cnc(Nc3cccc(Br)n3)s2)cc1C(=O)N1CCN(C(=O)[C@H](C)N)CC1
IC50 [2]: 1150 nM
IC50 [3]: 3520 nM

IC50 [1]: 1900 nM
Structure (SMILES): CC(=O)N1CCN(C(=O)c2ccccc2Sc2cnc(Nc3cccc(Br)n3)s2)CC1

IC50 [1]: 230 nM
Structure (SMILES): CCN1CCN(C(=O)c2cc(Sc3cnc(Nc4cccc(Br)n4)s3)ccc2C)CC1

IC50 (SH-SY5Y): 1660 nM
IC50 [4]: > 1000 nM
inhibition [7]: 8%
IC50 [5]: 180 nM
IC50 [1]: 31 nM
IC50 [6]: > 1000 nM
Structure (SMILES): CNCCN(C)C(=O)c1cc(Sc2cnc(Nc3cccc(Br)n3)s2)ccc1C
IC50 [2]: 460 nM
IC50 [3]: 3060 nM

IC50 [1]: 50 nM
Structure (SMILES): CC(=O)N1CCN(C(=O)c2cccc(Sc3cnc(Nc4cccc(Br)n4)s3)c2)CC1

IC50 [1]: 760 nM
Structure (SMILES): Cc1ccc(Sc2cnc(Nc3ccccn3)s2)cc1C(=O)NCCO

IC50 [1]: 210 nM
Structure (SMILES): COC(=O)N1CCN(C(=O)c2cc(Sc3cnc(Nc4ccccn4)s3)ccc2C)CC1

IC50 [1]: 1300 nM
Structure (SMILES): CC(=O)N1CCN(C(=O)c2ccc(Sc3cnc(Nc4cccc(Br)n4)s3)cc2)CC1

IC50 (SH-SY5Y): > 10000 nM
IC50 [1]: > 5000 nM
Structure (SMILES): CCNC(=O)c1cc(Sc2cnc(Nc3ccccn3)s2)ccc1C
IC50 [2]: > 10000 nM
IC50 [3]: > 10000 nM

IC50 (SH-SY5Y): 1140 nM
IC50 [4]: > 1000 nM
IC50 [5]: 490 nM
IC50 [8]: > 25000 nM
IC50 [1]: 1 nM
IC50 [6]: > 1000 nM
Structure (SMILES): CC(=O)N1CCN(C(=O)c2cc(Sc3cnc(Nc4cccc(Br)n4)s3)ccc2C)CC1
IC50 [2]: 250 nM
IC50 [3]: 2280 nM

IC50 [1]: 790 nM
Structure (SMILES): Cc1ccc(Sc2cnc(Nc3ccccn3)s2)cc1C(N)=O

Second part, the molecule before the results:

Structure (SMILES): CC(=O)N1CCN(C(=O)c2cccc(Sc3cnc(Nc4ccc(Br)cn4)s3)c2)CC1
IC50 [1]: 520 nM

Structure (SMILES): Cc1ccc(Sc2cnc(Nc3cccc(Br)n3)s2)cc1C(=O)N(C)CCC#N
IC50 (SH-SY5Y): 1170 nM
IC50 [2]: 370 nM
IC50 [3]: 3320 nM
IC50 [1]: 10 nM

Structure (SMILES): Cc1ccc(Sc2cnc(Nc3cccc(Br)n3)s2)cc1C(=O)N1CCN(C(=O)CN)CC1
IC50 (SH-SY5Y): 3060 nM
IC50 [4]: 430 nM
IC50 [5]: 540 nM
IC50 [2]: 550 nM
IC50 [3]: 4080 nM
IC50 [1]: 0.6 nM
IC50 [6]: > 1000 nM

Structure (SMILES): Cc1ccc(Sc2cnc(Nc3ccccn3)s2)cc1C(=O)NC(C)C
IC50 [1]: 2000 nM

Structure (SMILES): CC(=O)N1CCN(C(=O)c2cccc(Sc3cnc(Nc4cccc(C)n4)s3)c2)CC1
IC50 [1]: 1100 nM

Structure (SMILES): Cc1ccc(Sc2cnc(Nc3ccccn3)s2)cc1C(=O)N1CCNCC1
IC50 [1]: 160 nM

Structure (SMILES): CCC(=O)N1CCN(C(=O)c2cc(Sc3cnc(Nc4cccc(Br)n4)s3)ccc2C)CC1
IC50 [1]: 21 nM

Structure (SMILES): Cc1ccc(Sc2cnc(Nc3cccc(Br)n3)s2)cc1C(=O)NCCC#N
IC50 [1]: 67 nM

Structure (SMILES): CC(=O)N1CCN(Cc2cc(Sc3cnc(Nc4ccccn4)s3)ccc2C)CC1
IC50 [1]: 720 nM

Structure (SMILES): Cc1ccc(Sc2cnc(Nc3cccc(Br)n3)s2)cc1C(=O)N1CCN(CC(N)=O)CC1
IC50 [1]: 150 nM

Structure (SMILES): C#CCNC(=O)c1cc(Sc2cnc(Nc3ccccn3)s2)ccc1C
IC50 [1]: 1200 nM

Structure (SMILES): CC(=O)NCCNC(=O)c1cc(Sc2cnc(Nc3ccccn3)s2)ccc1C
IC50 [1]: 320 nM

Structure (SMILES): CC(=O)Nc1ncc(Sc2ccc(C)c(C(=O)N3CCN(C(C)=O)CC3)c2)s1
IC50 [1]: > 5000 nM

Structure (SMILES): CC(=O)N1CCN(C(=O)c2cccc(Sc3cnc(Nc4ccccn4)s3)c2)CC1
IC50 [1]: 240 nM

Structure (SMILES): Cc1ccc(Sc2cnc(Nc3ccccn3)s2)cc1NC(=O)CC#N
IC50 [1]: 60 nM

Structure (SMILES): CNCCNC(=O)c1cc(Sc2cnc(Nc3ccccn3)s2)ccc1C
IC50 [1]: 190 nM

Structure (SMILES): Cc1ccc(Sc2cnc(Nc3ccccn3)s2)cc1C(=O)NCc1ccccc1
IC50 [1]: > 5000 nM
